Reference: ChEMBL document CHEMBL3352703, “Sulfamates of methyl triterpenoates are effective and competitive inhibitors of carbonic anhydrase II” (Eur J Med Chem, 2014)

Columns and labels:
[1] = biological target: Carbonic anhydrase 2 (Bos taurus, UniProt P00921); assay: Inhibition of bovine erythrocyte carbonic anhydrase 2 using 4-nitrophenyl acetate substrate by photometric assay
[2] = Cytotoxicity against mouse NIH/3T3 cells after 96 hrs by SRB assay; format: cell-based; settings: NIH3T3, 96 h

Sequence of Carbonic anhydrase 2 (P00921 whole entry): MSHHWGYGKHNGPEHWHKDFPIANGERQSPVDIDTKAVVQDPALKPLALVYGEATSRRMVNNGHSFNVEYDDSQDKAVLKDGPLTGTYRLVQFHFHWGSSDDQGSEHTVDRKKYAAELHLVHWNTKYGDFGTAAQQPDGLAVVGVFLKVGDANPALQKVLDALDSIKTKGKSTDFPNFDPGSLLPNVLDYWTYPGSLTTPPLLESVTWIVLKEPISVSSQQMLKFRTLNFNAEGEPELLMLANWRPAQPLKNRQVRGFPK

Compound | Ki [1] | IC50 [2]
COC(=O)[C@@]1(C)CC[C@]2(C)CC[C@]3(C)C(=CC(=O)[C@@H]4[C@@]5(C)CC[C@H](O)C(C)(C)[C@@H]5CC[C@]43C)[C@@H]2C1 | > 10 µM | –
COC(=O)[C@@]1(C)CC[C@]2(C)CC[C@]3(C)C(=CC[C@@H]4[C@@]5(C)CC[C@H](O)C(C)(C)[C@@H]5CC[C@]43C)[C@@H]2C1 | > 10 µM | –
COC(=O)[C@]12CC[C@@H](C)[C@H](C)[C@H]1C1=CC(=O)[C@@H]3[C@@]4(C)CC[C@H](O)C(C)(C)[C@@H]4CC[C@@]3(C)[C@]1(C)CC2 | > 50 µM | –
COC(=O)[C@]12CCC(C)(C)C[C@H]1C1=CC[C@@H]3[C@@]4(C)CC[C@H](OS(N)(=O)=O)C(C)(C)[C@@H]4CC[C@@]3(C)[C@]1(C)CC2 | 0.308 µM | 12.8 µM
COC(=O)[C@@]1(C)CC[C@]2(C)CC[C@]3(C)C(=CC(=O)[C@@H]4[C@@]5(C)CC[C@H](OS(N)(=O)=O)C(C)(C)[C@@H]5CC[C@]43C)[C@@H]2C1 | 1.51 µM | > 30 µM
COC(=O)[C@@]1(C)CC[C@]2(C)CC[C@]3(C)C(=CC[C@@H]4[C@@]5(C)CC[C@H](OS(N)(=O)=O)C(C)(C)[C@@H]5CC[C@]43C)[C@@H]2C1 | > 4 µM | > 30 µM
COC(=O)[C@]12CCC(C)(C)C[C@H]1C1=CC[C@@H]3[C@@]4(C)C[C@@H](O)[C@H](OS(N)(=O)=O)C(C)(C)[C@@H]4CC[C@@]3(C)[C@]1(C)CC2 | 1.41 µM | 2.2 µM
COC(=O)[C@]12CCC(C)(C)C[C@H]1C1=CC(=O)[C@@H]3[C@@]4(C)CC[C@H](OS(N)(=O)=O)C(C)(C)[C@@H]4CC[C@@]3(C)[C@]1(C)CC2 | 1.49 µM | 25.9 µM
COC(=O)[C@]12CC[C@@H](C)[C@H](C)[C@H]1C1=CC(=O)[C@@H]3[C@@]4(C)CC[C@H](OS(N)(=O)=O)C(C)(C)[C@@H]4CC[C@@]3(C)[C@]1(C)CC2 | > 15 µM | 25.9 µM
C=C(C)[C@@H]1CC[C@]2(C(=O)OC)CC[C@]3(C)[C@H](CC[C@@H]4[C@@]5(C)CC[C@H](O)C(C)(C)[C@@H]5CC[C@]43C)[C@@H]12 [METHYL BETULINATE] | > 50 µM | –
COC(=O)[C@]12CCC(C)(C)C[C@H]1C1=CC[C@@H]3[C@@]4(C)CC[C@H](O)C(C)(C)[C@@H]4CC[C@@]3(C)[C@]1(C)CC2 [METHYL OLEANOLATE] | > 10 µM | –
COC(=O)[C@]12CC[C@@H](C)[C@H](C)[C@H]1C1=CC[C@@H]3[C@@]4(C)CC[C@H](O)C(C)(C)[C@@H]4CC[C@@]3(C)[C@]1(C)CC2 [METHYL URSOLATE] | > 10 µM | –

More lines, main results first:

Ki [1] | Compound | IC50 [2]
> 50 µM | COC(=O)[C@]12CCC(C)(C)C[C@H]1C1=CC(=O)[C@@H]3[C@@]4(C)CC[C@H](O)C(C)(C)[C@@H]4CC[C@@]3(C)[C@]1(C)CC2 | –
> 5 µM | COC(=O)[C@]12CC[C@@H](C(C)=O)[C@@H]1[C@H]1CC[C@@H]3[C@@]4(C)CC[C@H](O)C(C)(C)[C@@H]4CC[C@@]3(C)[C@]1(C)CC2 | –
1.11 µM | COC(=O)[C@]12CC[C@@H](C)[C@H](C)[C@H]1C1=CC[C@@H]3[C@@]4(C)CC[C@H](OS(N)(=O)=O)C(C)(C)[C@@H]4CC[C@@]3(C)[C@]1(C)CC2 | 22.8 µM
2.16 µM | C=C(C)[C@@H]1CC[C@]2(C(=O)OC)CC[C@]3(C)[C@H](CC[C@@H]4[C@@]5(C)CC[C@H](OS(N)(=O)=O)C(C)(C)[C@@H]5CC[C@]43C)[C@@H]12 | 9.8 µM
1.74 µM | COC(=O)[C@]12CC[C@@H](C(C)=O)[C@@H]1[C@H]1CC[C@@H]3[C@@]4(C)CC[C@H](OS(N)(=O)=O)C(C)(C)[C@@H]4CC[C@@]3(C)[C@]1(C)CC2 | > 30 µM
> 20 µM | COC(=O)[C@]12CCC(C)(C)C[C@H]1C1=CC[C@@H]3[C@@]4(C)C[C@@H](OS(N)(=O)=O)[C@H](O)C(C)(C)[C@@H]4CC[C@@]3(C)[C@]1(C)CC2 | 12.6 µM
> 25 µM | COC(=O)[C@]12CCC(C)(C)C[C@H]1C1=CC[C@@H]3[C@@]4(C)C[C@@H](O)[C@H](O)C(C)(C)[C@@H]4CC[C@@]3(C)[C@]1(C)CC2 [MASLINIC ACID METHYL ESTER] | –
